Experiments:
human TLR7 = human TLR7 (Homo sapiens (Human), UniProt Q9NYK1); assay: TLR7 inhibition reporter assay (HEK-Blue cells, SEAP reporter, gardiquimod stimulation); assay type: cell-based; details: HEK-Blue cells overexpressing human TLR7, gardiquimod 7.5 μM
human TLR8 = human TLR8 (Homo sapiens (Human), UniProt Q9NR97); assay: TLR8 inhibition reporter assay (HEK-Blue cells, SEAP reporter, R848 stimulation); details: read-out: TLR8 IC50, HEK-Blue cells overexpressing human TLR8, R848 15.9 μM;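 further: compounds tested from 0.05 nM to 50 µM, 22 h at 37 °C, SEAP measured with HEK-Blue Detection, inhibition relative to agonist plus DMSO versus a known inhibitor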
human TLR9 = human TLR9 (Homo sapiens (Human), UniProt Q9NR96); assay: TLR9 inhibition reporter assay (HEK-Blue cells, SEAP reporter, ODN2006 stimulation); details: read-out: TLR9 IC50, HEK-Blue cells overexpressing human TLR9, ODN2006 5 nM;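 further: compounds tested over 0.05 nM to 50 µM, 22 h incubation, inhibition taken as SEAP signal drop from agonist plus DMSO wells toward a known inhibitor control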
human TLR9, sequence (Q9NR96 26-1032): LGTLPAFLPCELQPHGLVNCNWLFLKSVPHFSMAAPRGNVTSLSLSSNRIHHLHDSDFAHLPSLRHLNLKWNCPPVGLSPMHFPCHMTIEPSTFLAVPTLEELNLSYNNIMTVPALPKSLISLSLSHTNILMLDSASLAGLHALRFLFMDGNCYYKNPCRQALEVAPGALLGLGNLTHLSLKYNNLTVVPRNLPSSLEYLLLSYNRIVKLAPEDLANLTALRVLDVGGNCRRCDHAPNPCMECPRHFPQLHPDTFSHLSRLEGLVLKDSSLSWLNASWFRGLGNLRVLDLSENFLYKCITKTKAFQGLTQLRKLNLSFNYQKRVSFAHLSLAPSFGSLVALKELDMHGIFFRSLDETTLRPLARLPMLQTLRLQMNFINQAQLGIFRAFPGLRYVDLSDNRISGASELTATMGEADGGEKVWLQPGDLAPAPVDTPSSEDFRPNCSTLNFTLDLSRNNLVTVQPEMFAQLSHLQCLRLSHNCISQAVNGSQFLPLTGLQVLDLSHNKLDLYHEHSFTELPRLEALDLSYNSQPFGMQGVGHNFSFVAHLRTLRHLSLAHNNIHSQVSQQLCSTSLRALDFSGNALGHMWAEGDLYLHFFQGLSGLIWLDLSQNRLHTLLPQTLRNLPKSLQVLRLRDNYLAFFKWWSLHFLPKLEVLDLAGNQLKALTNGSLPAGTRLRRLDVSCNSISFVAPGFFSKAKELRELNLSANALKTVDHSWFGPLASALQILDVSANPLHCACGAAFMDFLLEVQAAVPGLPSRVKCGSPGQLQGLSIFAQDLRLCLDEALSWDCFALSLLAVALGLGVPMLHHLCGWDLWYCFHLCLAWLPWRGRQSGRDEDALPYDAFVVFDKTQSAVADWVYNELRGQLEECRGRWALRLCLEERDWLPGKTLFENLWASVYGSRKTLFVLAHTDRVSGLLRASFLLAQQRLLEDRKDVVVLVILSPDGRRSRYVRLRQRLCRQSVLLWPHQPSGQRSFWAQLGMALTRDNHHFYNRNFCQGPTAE

human TLR8, sequence (Q9NR97 27-1041): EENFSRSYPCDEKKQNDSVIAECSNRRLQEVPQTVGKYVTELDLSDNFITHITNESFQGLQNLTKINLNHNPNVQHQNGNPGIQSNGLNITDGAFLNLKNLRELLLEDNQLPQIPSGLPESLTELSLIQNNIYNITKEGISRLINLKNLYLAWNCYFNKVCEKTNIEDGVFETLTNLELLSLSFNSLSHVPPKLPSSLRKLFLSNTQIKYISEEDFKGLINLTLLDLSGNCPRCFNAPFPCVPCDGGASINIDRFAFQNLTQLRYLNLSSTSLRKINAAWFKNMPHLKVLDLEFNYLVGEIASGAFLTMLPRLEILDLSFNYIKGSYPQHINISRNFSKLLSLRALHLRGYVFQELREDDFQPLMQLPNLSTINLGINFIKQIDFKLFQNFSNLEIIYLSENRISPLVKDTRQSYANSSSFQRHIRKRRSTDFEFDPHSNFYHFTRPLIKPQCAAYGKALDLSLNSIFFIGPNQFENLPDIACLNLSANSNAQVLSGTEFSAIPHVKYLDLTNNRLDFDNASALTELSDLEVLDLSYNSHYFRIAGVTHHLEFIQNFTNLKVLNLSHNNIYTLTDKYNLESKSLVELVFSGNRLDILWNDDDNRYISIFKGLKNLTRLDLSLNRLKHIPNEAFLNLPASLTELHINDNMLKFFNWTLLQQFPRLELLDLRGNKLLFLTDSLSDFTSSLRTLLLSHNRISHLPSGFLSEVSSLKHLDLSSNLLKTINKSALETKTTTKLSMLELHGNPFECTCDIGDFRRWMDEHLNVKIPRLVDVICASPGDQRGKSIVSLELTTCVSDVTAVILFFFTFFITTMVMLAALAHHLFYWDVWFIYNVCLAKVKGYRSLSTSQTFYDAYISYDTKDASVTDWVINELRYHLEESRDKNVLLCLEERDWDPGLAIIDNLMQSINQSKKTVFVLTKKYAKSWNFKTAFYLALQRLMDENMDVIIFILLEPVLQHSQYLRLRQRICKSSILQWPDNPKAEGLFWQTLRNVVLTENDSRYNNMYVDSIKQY
human TLR7, sequence (Q9NYK1 27-1049): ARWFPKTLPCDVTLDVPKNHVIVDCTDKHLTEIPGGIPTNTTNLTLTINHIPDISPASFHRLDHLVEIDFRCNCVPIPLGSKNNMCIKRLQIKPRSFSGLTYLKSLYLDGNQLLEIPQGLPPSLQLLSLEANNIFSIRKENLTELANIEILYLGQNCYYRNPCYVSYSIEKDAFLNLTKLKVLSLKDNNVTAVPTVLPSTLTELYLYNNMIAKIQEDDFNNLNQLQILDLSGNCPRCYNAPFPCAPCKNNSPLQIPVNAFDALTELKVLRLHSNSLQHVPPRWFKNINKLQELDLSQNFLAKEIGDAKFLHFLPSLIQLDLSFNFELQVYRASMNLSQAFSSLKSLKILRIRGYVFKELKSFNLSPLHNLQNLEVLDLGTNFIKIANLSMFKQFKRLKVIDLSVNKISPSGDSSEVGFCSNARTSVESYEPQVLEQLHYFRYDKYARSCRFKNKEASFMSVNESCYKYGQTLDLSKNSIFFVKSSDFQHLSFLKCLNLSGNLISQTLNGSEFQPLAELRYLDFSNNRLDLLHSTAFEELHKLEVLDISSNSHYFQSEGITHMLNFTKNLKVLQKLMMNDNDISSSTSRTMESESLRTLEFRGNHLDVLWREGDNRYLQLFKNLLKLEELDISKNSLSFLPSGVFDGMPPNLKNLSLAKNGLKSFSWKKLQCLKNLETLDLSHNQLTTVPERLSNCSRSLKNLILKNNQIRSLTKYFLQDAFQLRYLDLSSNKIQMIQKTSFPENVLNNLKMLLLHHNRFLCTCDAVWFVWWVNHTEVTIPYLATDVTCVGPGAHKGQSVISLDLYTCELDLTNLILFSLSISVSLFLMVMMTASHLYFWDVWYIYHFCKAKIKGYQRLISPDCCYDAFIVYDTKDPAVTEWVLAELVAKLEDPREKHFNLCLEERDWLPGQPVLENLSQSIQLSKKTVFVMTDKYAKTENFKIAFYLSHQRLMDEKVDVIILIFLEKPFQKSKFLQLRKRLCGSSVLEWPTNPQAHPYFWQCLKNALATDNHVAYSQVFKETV

SMILES	IC50 (human TLR7)	IC50 (human TLR8)	IC50 (human TLR9)
Cc1cc(-c2[nH]c3ccc(C4CCN(CC(=O)N(C)CCCO)CC4)cc3c2C(C)C)cc(C)n1 [Example 288, 2-(4-(2-(2,6-dimethylpyridin-4-yl)-3-isopropyl-1H-indol-5-yl)piperidin-1-yl)-N-(3-hydroxypropyl)-N-methylacetamide]	10 nM	34.6 nM	1470 nM
Cc1cc(-c2[nH]c3ccc(C4CCN(CC(=O)N5C[C@H](C)C[C@@H]5CO)CC4)cc3c2C(C)C)cc(C)n1 [Example 290, 2-(4-(2-(2,6-dimethylpyridin-4-yl)-3-isopropyl-1H-indol-5-yl)piperidin-1-yl)-1-((2R,4R)-2-(hydroxymethyl)-4-methylpyrrolidin-1-yl) ethan-1-one]	12 nM	66.8 nM	870 nM
Cc1cc(-c2[nH]c3ccc(C4CCN(CC(=O)N5C[C@@H](C(F)(F)F)C[C@H]5CO)CC4)cc3c2C(C)C)cc(C)n1 [Example 291, 2-(4-(2-(2,6-dimethylpyridin-4-yl)-3-isopropyl-1H-indol-5-yl)piperidin-1-yl)-1-((2S,4S)-2-(hydroxymethyl)-4-(trifluoromethyl)pyrrolidin-1-yl)ethan-1-one]	18.1 nM	124 nM	3200 nM
Cc1cc(-c2[nH]c3ccc(C4CCN(CC(=O)N(CCO)Cc5ccccc5)CC4)cc3c2C(C)C)cc(C)n1 [Example 293, N-benzyl-2-(4-(2-(2,6-dimethylpyridin-4-yl)-3-isopropyl-1H-indol-5-yl)piperidin-1-yl)-N-(2-hydroxyethyl)acetamide]	22.8 nM	72.2 nM	711 nM
CCN(CCO)C(=O)CN1CCC(c2ccc3[nH]c(-c4cc(C)nc(C)c4)c(C(C)C)c3c2)CC1 [Example 294, 2-(4-(2-(2,6-dimethylpyridin-4-yl)-3-isopropyl-1H-indol-5-yl)piperidin-1-yl)-N-ethyl-N-(2-hydroxyethyl)acetamide]	14.1 nM	58.3 nM	1880 nM
CCCN(CCO)C(=O)CN1CCC(c2ccc3[nH]c(-c4cc(C)nc(C)c4)c(C(C)C)c3c2)CC1 [Example 295, 2-(4-(2-(2,6-dimethylpyridin-4-yl)-3-isopropyl-1H-indol-5-yl)piperidin-1-yl)-N-(2-hydroxyethyl)-N-propylacetamide]	30 nM	142 nM	3170 nM
Cc1cc(-c2[nH]c3ccc(C4CCN(CC(=O)N(C)CC(O)c5ccccc5)CC4)cc3c2C(C)C)cc(C)n1 (stereo not drawn) [Example 296, 2-(4-(2-(2,6-dimethylpyridin-4-yl)-3-isopropyl-1H-indol-5-yl)piperidin-1-yl)-N-(2-hydroxy-2-phenylethyl)-N-methylacetamide]	10.5 nM	46.2 nM	553 nM
CCC(C)CN(CCO)C(=O)CN1CCC(c2ccc3[nH]c(-c4cc(C)nc(C)c4)c(C(C)C)c3c2)CC1 (stereo not drawn) [Example 297, 2-(4-(2-(2,6-dimethylpyridin-4-yl)-3-isopropyl-1H-indol-5-yl)piperidin-1-yl)-N-(2-hydroxyethyl)-N-(2-methylbutyl)acetamide]	13.4 nM	43.6 nM	710 nM
CCCCN(CCO)C(=O)CN1CCC(c2ccc3[nH]c(-c4cc(C)nc(C)c4)c(C(C)C)c3c2)CC1 [Example 298, N-butyl-2-(4-(2-(2,6-dimethylpyridin-4-yl)-3-isopropyl-1H-indol-5-yl)piperidin-1-yl)-N-(2-hydroxyethyl)acetamide]	25.6 nM	100 nM	2670 nM
Cc1cc(-c2[nH]c3ccc(C4CCN(CC(=O)N(CCO)C(C)C)CC4)cc3c2C(C)C)cc(C)n1 [Example 299, 2-(4-(2-(2,6-dimethylpyridin-4-yl)-3-isopropyl-1H-indol-5-yl)piperidin-1-yl)-N-(2-hydroxyethyl)-N-isopropylacetamide]	24 nM	112 nM	2630 nM
Cc1cc(-c2[nH]c3ccc(C4CCN(CC(=O)N(CCO)Cc5ccc(F)cc5)CC4)cc3c2C(C)C)cc(C)n1 [Example 300, 2-(4-(2-(2,6-dimethylpyridin-4-yl)-3-isopropyl-1H-indol-5-yl)piperidin-1-yl)-N-(4-fluorobenzyl)-N-(2-hydroxyethyl)acetamide]	28.8 nM	70.7 nM	1660 nM
Cc1cc(-c2[nH]c3ccc(C4CCN(CC(=O)N5C[C@H](C(F)(F)F)C[C@@H]5CO)CC4)cc3c2C(C)C)cc(C)n1 [Example 301, 2-(4-(2-(2,6-dimethylpyridin-4-yl)-3-isopropyl-1H-indol-5-yl)piperidin-1-yl)-1-((2R,4R)-2-(hydroxymethyl)-4-(trifluoromethyl)pyrrolidin-1-yl)ethan-1-one]	19.6 nM	118 nM	1580 nM
Cc1cc(-c2[nH]c3ccc(C4CCN(CC(=O)N5CCC[C@@H]5CO)CC4)cc3c2C(C)C)cc(C)n1 [Example 302, (R)-2-(4-(2-(2,6-dimethylpyridin-4-yl)-3-isopropyl-1H-indol-5-yl)piperidin-1-yl)-1-(2-(hydroxymethyl)pyrrolidin-1-yl) ethan-1-one]	8.2 nM	63.1 nM	1260 nM
Cc1cc(-c2[nH]c3ccc(C4CCN(CC(=O)N(C)CCC5(O)CCCC5)CC4)cc3c2C(C)C)cc(C)n1 [Example 303, 2-(4-(2-(2,6-dimethylpyridin-4-yl)-3-isopropyl-1H-indol-5-yl)piperidin-1-yl)-N-(2-(1-hydroxycyclopentyl)ethyl)-N-methylacetamide]	7.8 nM	35.4 nM	402 nM
Cc1cc(-c2[nH]c3ccc(C4CCN(CC(=O)N5CCOC[C@H]5CO)CC4)cc3c2C(C)C)cc(C)n1 [Example 304, (R)-2-(4-(2-(2,6-dimethylpyridin-4-yl)-3-isopropyl-1H-indol-5-yl)piperidin-1-yl)-1-(3-(hydroxymethyl)morpholino)ethan-1-one]	10.3 nM	42.6 nM	441 nM
Cc1cc(-c2[nH]c3ccc(C4CCN(CC(=O)N(C)[C@H]5CCOC5)CC4)cc3c2C(C)C)cc(C)n1 [Example 307, (S)-2-(4-(2-(2,6-dimethylpyridin-4-yl)-3-isopropyl-1H-indol-5-yl)piperidin-1-yl)-N-methyl-N-(tetrahydrofuran-3-yl)acetamide]	17.7 nM	87.2 nM	3680 nM
Cc1cc(-c2[nH]c3ccc(C4CCN(CC(F)(F)F)CC4)cc3c2C(C)C)cc(C)n1 [Example 310, 2-(2,6-dimethylpyridin-4-yl)-3-isopropyl-5-(1-(2,2,2-trifluoroethyl)piperidin-4-yl)-1H-indole]	230 nM	895 nM	29900 nM

The next compounds have a lower IC50 (human TLR7) than those just listed; values first:

IC50 (human TLR7)	IC50 (human TLR8)	IC50 (human TLR9)	SMILES
6.2 nM	14 nM	261 nM	Cc1cc(-c2[nH]c3ccc(C4CCN(CC(=O)N5CCC6(CC5)COC6)CC4)cc3c2C(C)C)cc(C)n1 [Example 286, 2-(4-(2-(2,6-dimethylpyridin-4-yl)-3-isopropyl-1H-indol-5-yl)piperidin-1-yl)-1-(2-oxa-7-azaspiro[3.5]nonan-7-yl)ethan-1-one]
6 nM	16.9 nM	697 nM	Cc1cc(-c2[nH]c3ccc(C4CCN(CC(=O)N(C)C5CCOC5)CC4)cc3c2C(C)C)cc(C)n1 (stereo not drawn) [Example 289, 2-(4-(2-(2,6-dimethylpyridin-4-yl)-3-isopropyl-1H-indol-5-yl)piperidin-1-yl)-N-methyl-N-(tetrahydrofuran-3-yl)acetamide]
4.9 nM	11.1 nM	271 nM	Cc1cc(-c2[nH]c3ccc(C4CCN(CC(=O)N(C)CC(C)(C)O)CC4)cc3c2C(C)C)cc(C)n1 [Example 305, 2-(4-(2-(2,6-dimethylpyridin-4-yl)-3-isopropyl-1H-indol-5-yl)piperidin-1-yl)-N-(2-hydroxy-2-methylpropyl)-N-methylacetamide]
4 nM	13.9 nM	423 nM	Cc1cc(-c2[nH]c3ccc(C4CCN(CC(=O)N5CCCC(F)(F)C5)CC4)cc3c2C(C)C)cc(C)n1 [Example 285, 1-(3,3-difluoropiperidin-1-yl)-2-(4-(2-(2,6-dimethylpyridin-4-yl)-3-isopropyl-1H-indol-5-yl)piperidin-1-yl)ethan-1-one]
3.7 nM	9 nM	2700 nM	Cc1cc(-c2[nH]c3ccc(C4CCN(CC(=O)NC5CCOC5)CC4)cc3c2C(C)C)cc(C)n1 (stereo not drawn) [Example 282, 2-(4-(2-(2,6-dimethylpyridin-4-yl)-3-isopropyl-1H-indol-5-yl)piperidin-1-yl)-N-(tetrahydrofuran-3-yl)acetamide]
3.1 nM	12.3 nM	365 nM	CO[C@@H]1C[C@H](CO)N(C(=O)CN2CCC(c3ccc4[nH]c(-c5cc(C)nc(C)c5)c(C(C)C)c4c3)CC2)C1 [Example 292, 2-(4-(2-(2,6-dimethylpyridin-4-yl)-3-isopropyl-1H-indol-5-yl)piperidin-1-yl)-1-((2R,4R)-2-(hydroxymethyl)-4-methoxypyrrolidin-1-yl)ethan-1-one]
2.6 nM	8.9 nM	248 nM	Cc1cc(-c2[nH]c3ccc(C4CCN(CC(=O)N5CCC(F)CC5)CC4)cc3c2C(C)C)cc(C)n1 [Example 283, 2-(4-(2-(2,6-dimethylpyridin-4-yl)-3-isopropyl-1H-indol-5-yl)piperidin-1-yl)-1-(4-fluoropiperidin-1-yl)ethan-1-one]
1.8 nM	2.5 nM	270 nM	Cc1cc(-c2[nH]c3ccc(C4CCN(CCCO)CC4)cc3c2C(C)C)cc(C)n1 [Example 311, 3-(4-(2-(2,6-dimethylpyridin-4-yl)-3-isopropyl-1H-indol-5-yl)piperidin-1-yl)propan-1-ol]

From patent US10660877B2 (BRISTOL-MYERS SQUIBB COMPANY, priority 2016, dated 2020)
